Data taken from PubChem BioAssay AID330 (DTP/NCI, 2004).
“And” between values parts separate entries of the source, which are not always exact repeats. Identical values can stand only once. Inconclusive results and toxic doses are left out. The calls were made as follows: active = survival T/C of 150% or more; inactive = T/C below 125% in these data.

Test system: P388 leukemia ip, CD2F1 mice, survival T/C
Assay: NCI In Vivo Anticancer Drug Screen. Data for tumor model P388 Leukemia (intraperitoneal) in CD2F1 (CDF1) mice
Settings: endpoint: median survival time, higher = longer survival
Method in brief: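 Mice carrying the transplanted tumor received test compound or vehicle. Survival was recorded in each group, and the value is the treated-group measurement divided by that of the vehicle-treated control group.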

[1] = dose: 50.0 mg/kg/injection, schedule: Q01DX005 (ip), vehicle: saline with Tween-80
[2] = dose: 100.0 mg/kg/injection, schedule: Q01DX005 (ip), vehicle: saline with Tween-80
[3] = dose: 50.0 mg/kg/injection, schedule: Q01DX009 (ip), vehicle: Klucel (hydroxypropylcellulose) (HPC)
[4] = dose: 100.0 mg/kg/injection, schedule: Q01DX009 (ip), vehicle: Klucel (hydroxypropylcellulose) (HPC)
[5] = dose: 200.0 mg/kg/injection, schedule: Q01DX009 (ip), vehicle: Klucel (hydroxypropylcellulose) (HPC)
[6] = dose: 50.0 mg/kg/injection, schedule: Q01DX009 (ip), vehicle: saline
[7] = dose: 100.0 mg/kg/injection, schedule: Q01DX009 (ip), vehicle: saline
[8] = dose: 200.0 mg/kg/injection, schedule: Q01DX009 (ip), vehicle: saline
[9] = dose: 50.0 mg/kg/injection, schedule: Q01DX005 (ip), vehicle: Klucel (hydroxypropylcellulose) (HPC)
[10] = dose: 100.0 mg/kg/injection, schedule: Q01DX005 (ip), vehicle: Klucel (hydroxypropylcellulose) (HPC)
[11] = dose: 200.0 mg/kg/injection, schedule: Q01DX005 (ip), vehicle: Klucel (hydroxypropylcellulose) (HPC)

Measured: T/C

CC(=O)N1CCCC1C(=O)O (stereo unspecified)
inactive: dose: 25.0 mg/kg/injection, schedule: Q04DX003 (ip), vehicle: saline 102 % of control | dose: 50.0 mg/kg/injection, schedule: Q04DX003 (ip), vehicle: saline 112 % of control | dose: 100.0 mg/kg/injection, schedule: Q04DX003 (ip), vehicle: saline 105 % of control and 87 % of control | dose: 400.0 mg/kg/injection, schedule: Q04DX003 (ip), vehicle: saline 101 % of control

C/C1=C2N=C(/C=C3N=C(/C(C)=C4\[N-]C(C(CC(N)=O)C4(C)CCC(=O)NCC(C)OP(=O)(O)OC4C(CO)OC(n5cnc6cc(C)c(C)cc65)C4O)C4(C)N=C1C(CCC(N)=O)C4(C)CC(N)=O)C(CCC(N)=O)C\3(C)C)C(CCC(N)=O)C/2(C)CC(N)=O.[CH2-]CC.[Co+2] (stereo unspecified)
inactive: dose: 76.1 micrograms/kg/injection, schedule: Q#A X Z (ip), vehicle: water 88 % of control | dose: 7610.0 micrograms/kg/injection, schedule: Q#A X Z (ip), vehicle: water 99 % of control

C=C(C)C(=O)OC1CC2(C)OC2CCC2(C)OC2C2OC(=O)C(=C)C12 (stereo unspecified)
inactive: dose: 10.0 mg/kg/injection, schedule: Q01DX005 (ip), vehicle: Klucel (hydroxypropylcellulose) (HPC) 108 % of control | dose: 20.0 mg/kg/injection, schedule: Q01DX005 (ip), vehicle: Klucel (hydroxypropylcellulose) (HPC) 106 % of control | dose: 40.0 mg/kg/injection, schedule: Q01DX005 (ip), vehicle: Klucel (hydroxypropylcellulose) (HPC) 100 % of control

Cc1oc2ccccc2c(=O)c1CN1CCN(c2ccccn2)CC1
inactive: dose: 60.0 mg/kg/injection, schedule: Q01DX005 (ip), vehicle: saline 101 % of control | dose: 120.0 mg/kg/injection, schedule: Q01DX005 (ip), vehicle: saline 101 % of control

COC(=O)Nc1nc2ccccc2[nH]1
inactive: dose: 20.0 mg/kg/injection, schedule: Q04DX003 (ip), vehicle: other 101 % of control | dose: 20.0 mg/kg/injection, schedule: Q04DX003 (oral), vehicle: other 100 % of control | dose: 40.0 mg/kg/injection, schedule: Q04DX003 (ip), vehicle: other 100 % of control | dose: 40.0 mg/kg/injection, schedule: Q04DX003 (oral), vehicle: other 101 % of control | dose: 80.0 mg/kg/injection, schedule: Q04DX003 (ip), vehicle: other 101 % of control | dose: 80.0 mg/kg/injection, schedule: Q04DX003 (oral), vehicle: other 101 % of control | dose: 160.0 mg/kg/injection, schedule: Q04DX003 (ip), vehicle: other 107 % of control | dose: 160.0 mg/kg/injection, schedule: Q04DX003 (oral), vehicle: other 105 % of control | dose: 320.0 mg/kg/injection, schedule: Q04DX003 (ip), vehicle: other 102 % of control | dose: 320.0 mg/kg/injection, schedule: Q04DX003 (oral), vehicle: other 100 % of control | dose: 640.0 mg/kg/injection, schedule: Q04DX003 (ip), vehicle: other 111 % of control | dose: 640.0 mg/kg/injection, schedule: Q04DX003 (oral), vehicle: other 102 % of control

COC(=O)C(C#N)=C(Cl)Cl
inactive: dose: 1.56 mg/kg/injection, schedule: Q01DX005 (ip), vehicle: Klucel (hydroxypropylcellulose) (HPC) 98 % of control | dose: 3.12 mg/kg/injection, schedule: Q01DX005 (ip), vehicle: Klucel (hydroxypropylcellulose) (HPC) 94 % of control | dose: 6.25 mg/kg/injection, schedule: Q01DX005 (ip), vehicle: Klucel (hydroxypropylcellulose) (HPC) 93 % of control

Cc1cc(NC(=O)c2ccc(N)cc2)ccc1N=Nc1ccc2c(O)c(N=Nc3ccc(S(=O)(=O)O)cc3C)c(S(=O)(=O)O)cc2c1
inactive: [1] 100 % of control | [2] 90 % of control

NC(=O)c1nc2ccccn2c1[N+](=O)[O-]
inactive: [3] 99 % of control | [4] 101 % of control | [5] 108 % of control

COc1cc(C)c(OC)c(CC=C(C)CC(=O)C[C@@]2(C)CCC[C@@]2(C)C(=O)CCC(C)(C)O)c1 (mixture of isomers)
inactive: dose: 25.0 mg/kg/injection, schedule: Q01DX005 (ip), vehicle: saline with Tween-80 93 % of control | [1] 91 % of control | [2] 95 % of control

NC1=C(C(=O)c2ccccc2)CCCC1
inactive: [6] 106 % of control | [7] 97 % of control | [8] 97 % of control

Cc1cc(NS(=O)(=O)c2ccc(N)cc2)no1.[Ag]
inactive: dose: 12.5 mg/kg/injection, schedule: Q01DX009 (ip), vehicle: Klucel (hydroxypropylcellulose) (HPC) 89 % of control | dose: 25.0 mg/kg/injection, schedule: Q01DX009 (ip), vehicle: Klucel (hydroxypropylcellulose) (HPC) 101 % of control | [3] 106 % of control

OCC1OC(SC2OC(CO)C(O)C(O)C2O)C(O)C(O)C1O (stereo unspecified)
inactive: dose: 100.0 mg/kg/injection, schedule: Q01DX001 (ip), vehicle: water 114 % of control | dose: 200.0 mg/kg/injection, schedule: Q01DX001 (ip), vehicle: water 94 % of control | dose: 400.0 mg/kg/injection, schedule: Q01DX001 (ip), vehicle: water 100 % of control

O=C(O)C(=O)O.O=C(O)C(=O)O.O=C(O)C(=O)O.[Ir]
inactive: dose: 12.5 mg/kg/injection, schedule: Q04DX003 (ip), vehicle: water 120 % of control | dose: 25.0 mg/kg/injection, schedule: Q04DX003 (ip), vehicle: water 120 % of control | dose: 50.0 mg/kg/injection, schedule: Q04DX003 (ip), vehicle: water 93 % of control | dose: 100.0 mg/kg/injection, schedule: Q04DX003 (ip), vehicle: water 98 % of control

O=C1CC(=O)N(CN2C(=O)CC(=O)NC2=S)C(=S)N1
inactive: [9] 100 % of control | [10] 103 % of control | [11] 105 % of control

O=C(O)CS(=O)(=O)CCCCCS(=O)(=O)CC(=O)O
inactive: [6] 106 % of control | [7] 104 % of control | [8] 105 % of control

CC(C(=O)O)c1cccc2c(=O)cc(-c3ccccc3)oc12 (stereo unspecified)
inactive: [9] 100 % of control | [10] 87 % of control | [11] 109 % of control

CCOc1ccc(C(C)c2cc3c(cc2OCC)OCO3)cc1C (stereo unspecified)
inactive: dose: 25.0 mg/kg/injection, schedule: Q01DX005 (ip), vehicle: Klucel (hydroxypropylcellulose) (HPC) 94 % of control | [9] 110 % of control and 116 % of control and 97 % of control | [10] 101 % of control and 119 % of control | [11] 114 % of control

Cc1c(/C=C/c2oc3ccc(C(=N)N)cc3c2C)oc2ccc(C(=N)N)cc12
inactive: dose: 100.0 mg/kg/injection, schedule: Q04DX002 (ip), vehicle: saline 124 % of control

CCOC(=O)c1ccc(NC(=O)Nc2ccccc2F)cc1
inactive: dose: 60.0 mg/kg/injection, schedule: Q01DX005 (ip), vehicle: saline with Tween-80 95 % of control | dose: 120.0 mg/kg/injection, schedule: Q01DX005 (ip), vehicle: saline with Tween-80 95 % of control | dose: 240.0 mg/kg/injection, schedule: Q01DX005 (ip), vehicle: saline with Tween-80 104 % of control

N#CC(C#N)=CNCC1CC1
inactive: dose: 15.0 mg/kg/injection, schedule: Q01DX005 (ip), vehicle: Klucel (hydroxypropylcellulose) (HPC) 102 % of control | dose: 30.0 mg/kg/injection, schedule: Q01DX005 (ip), vehicle: Klucel (hydroxypropylcellulose) (HPC) 100 % of control | dose: 60.0 mg/kg/injection, schedule: Q01DX005 (ip), vehicle: Klucel (hydroxypropylcellulose) (HPC) 98 % of control and 99 % of control

Cc1nn2c(-c3snnc3C)nnc2s1
inactive: dose: 100.0 mg/kg/injection, schedule: Q01DX001 (ip), vehicle: Klucel (hydroxypropylcellulose) (HPC) 99 % of control | dose: 200.0 mg/kg/injection, schedule: Q01DX001 (ip), vehicle: Klucel (hydroxypropylcellulose) (HPC) 100 % of control | dose: 400.0 mg/kg/injection, schedule: Q01DX001 (ip), vehicle: Klucel (hydroxypropylcellulose) (HPC) 100 % of control

O=S(=O)(C(Br)S(=O)(=O)C(F)(F)C(F)(F)C(F)(F)C(F)(F)F)C(F)(F)C(F)(F)C(F)(F)C(F)(F)F
inactive: dose: 25.0 mg/kg/injection, schedule: Q01DX001 (ip), vehicle: saline 95 % of control | dose: 50.0 mg/kg/injection, schedule: Q01DX001 (ip), vehicle: saline 95 % of control | dose: 100.0 mg/kg/injection, schedule: Q01DX001 (ip), vehicle: saline 100 % of control and 101 % of control

Cc1nn(C(=O)c2ccncc2)c(C)c1N=Nc1ccc(Br)cc1
inactive: [3] 109 % of control | [4] 110 % of control | [5] 105 % of control
